Measured values as given in the supplement of paper PMC5908809.

What was measured:
[1] = system: normal NK cells expanded with K562-aAPC; experiment: percent inhibition of viability; higher = more inhibition; details: 72 h, IL-2 2.5 ng/mL
Protocol: (§1)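 Drug sensitivity and resistance testing on K562-aAPC-expanded normal NK cells: 5 concentrations (10-fold steps over a 10,000-fold range), 72 h at 37 °C, viability by CellTiter-Glo normalised to DMSO and benzethonium chloride controls; DSS from the fitted curve.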

DERL-7 (IL-2 2.5 ng/mL) [2] = experiment: as above; details: 72 h
IMC-1 (IL-2 20 ng/mL) [3] = experiment: as above; details: 72 h
KAI3 (IL-2 2.5 ng/mL) [4] = experiment: as above; details: 72 h
KHYG-1 (IL-2 2.5 ng/mL) [5] = experiment: as above; details: 72 h
NK-92 (IL-2 2.5 ng/mL) [6] = experiment: as above; details: 72 h
NK-YS (IL-2 2.5 ng/mL) [7] = experiment: as above; details: 72 h
NKL (IL-2 2.5 ng/mL) [8] = experiment: as above; details: 72 h
SNK-6 (IL-2 2.5 ng/mL) [9] = experiment: as above; details: 72 h
YT (IL-2 2.5 ng/mL) [10] = experiment: as above; details: 72 h
[11] = system: normal primary NK cells, pool 1 (3 donors) (IL-2 2.5 ng/mL); experiment: as above; details: 72 h
[12] = system: normal primary NK cells, pool 1 (3 donors), resting (IL-2 0 ng/mL); experiment: as above; details: 72 h
[13] = system: normal primary NK cells, pool 2 (3 donors) (IL-2 2.5 ng/mL); experiment: as above; details: 72 h
[14] = system: normal primary NK cells, pool 3 (3 donors) (IL-2 2.5 ng/mL); experiment: as above; details: 72 h
[15] = system: normal NK cells expanded with K562-aAPC; experiment: drug sensitivity score (DSS) (DSS units); higher = more sensitive; extreme values may be limits of the assay; details: 72 h; IL-2 2.5 ng/mL
Protocol: as §1

DERL-7 (IL-2 2.5 ng/mL) [16] = experiment: as above; details: 72 h
IMC-1 (IL-2 20 ng/mL) [17] = experiment: as above; details: 72 h
KAI3 (IL-2 2.5 ng/mL) [18] = experiment: as above; details: 72 h
KHYG-1 (IL-2 2.5 ng/mL) [19] = experiment: as above; details: 72 h
NK-92 (IL-2 2.5 ng/mL) [20] = experiment: as above; details: 72 h
NK-YS (IL-2 2.5 ng/mL) [21] = experiment: as above; details: 72 h
NKL (IL-2 2.5 ng/mL) [22] = experiment: as above; details: 72 h
SNK-6 (IL-2 2.5 ng/mL) [23] = experiment: as above; details: 72 h
YT (IL-2 2.5 ng/mL) [24] = experiment: as above; details: 72 h
[25] = system: normal primary NK cells, pool 1 (3 donors) (IL-2 2.5 ng/mL); experiment: as above; details: 72 h
[26] = system: normal primary NK cells, pool 1 (3 donors), resting (IL-2 0 ng/mL); experiment: as above; details: 72 h
[27] = system: normal primary NK cells, pool 2 (3 donors) (IL-2 2.5 ng/mL); experiment: as above; details: 72 h
[28] = system: normal primary NK cells, pool 3 (3 donors) (IL-2 2.5 ng/mL); experiment: as above; details: 72 h

CN(C[C@@H]1COCCO1)S(=O)(=O)Nc1ccc2ccc3ncc(-c4cnn(C)c4)cc3c(=O)c2c1 [MK-2461] (max concentration tested 10000 nM)
percent inhibition of viability [%]
Details	1 nM	10 nM	100 nM	1000 nM	10000 nM
DERL-7 (IL-2 2.5 ng/mL) [2]	-6.68	-3.14	-6.19	10.2	52.8
IMC-1 (IL-2 20 ng/mL) [3]	1.71	-0.63	3.27	-5.3	-50.1
KAI3 (IL-2 2.5 ng/mL) [4]	-1.76	-2.96	7.38	21.6	44.7
KHYG-1 (IL-2 2.5 ng/mL) [5]	-0.18	-3.51	-0.87	6.75	44.4
NK-92 (IL-2 2.5 ng/mL) [6]	1.01	-5.16	-10.7	7.81	9.19
NK-YS (IL-2 2.5 ng/mL) [7]	0.46	-3.34	-0.08	3.95	33.3
NKL (IL-2 2.5 ng/mL) [8]	-3.44	-1.59	-12	8.79	30
SNK-6 (IL-2 2.5 ng/mL) [9]	0.33	-7.16	-3.05	-24.8	19.4
YT (IL-2 2.5 ng/mL) [10]	-0.04	-0.58	-1.61	0.19	10.3
[1]	2.16	-3.15	-5.97	-1.83	29.5
[11]	-3.44	-9.95	-8.02	-7.44	21.8
[12]	-17.8	-18.1	-32.3	-29.1	26.9
[13]	-7.85	-3.63	-2.59	-2.71	16.6
[14]	-12.9	-6.11	-6.1	-12.5	-1.21

Details	drug sensitivity score
DERL-7 (IL-2 2.5 ng/mL) [16]	4.49
IMC-1 (IL-2 20 ng/mL) [17]	0
KAI3 (IL-2 2.5 ng/mL) [18]	4.68
KHYG-1 (IL-2 2.5 ng/mL) [19]	3.41
NK-92 (IL-2 2.5 ng/mL) [20]	0
NK-YS (IL-2 2.5 ng/mL) [21]	2.18
NKL (IL-2 2.5 ng/mL) [22]	2.56
SNK-6 (IL-2 2.5 ng/mL) [23]	0.21
YT (IL-2 2.5 ng/mL) [24]	0
[15]	1.13
[25]	0.46
[26]	0.54
[27]	0.24
[28]	0

O=C(c1cccc(Cl)c1F)N1CCN(Cc2cccc(Nc3nccs3)n2)CC1 [MK-8745] (max concentration tested 2500 nM)
percent inhibition of viability [%]
Details	0.25 nM	2.5 nM	25 nM	250 nM	2500 nM
DERL-7 (IL-2 2.5 ng/mL) [2]	-8.45	2.62	1.62	22	83.1
IMC-1 (IL-2 20 ng/mL) [3]	-1.25	-4.64	-0.96	2.91	66.8
KAI3 (IL-2 2.5 ng/mL) [4]	-2.71	2.86	-1.01	18.3	36.5
KHYG-1 (IL-2 2.5 ng/mL) [5]	-1.65	-5.36	-0.69	6.09	44.4
NK-92 (IL-2 2.5 ng/mL) [6]	-12.1	-7.81	-0.68	8.86	26.2
NK-YS (IL-2 2.5 ng/mL) [7]	-0.85	-3.89	-0.06	38.4	61.3
NKL (IL-2 2.5 ng/mL) [8]	-14.5	-12.8	-23.9	17.2	40.3
SNK-6 (IL-2 2.5 ng/mL) [9]	-0.59	0.91	-4.8	47.9	76.6
YT (IL-2 2.5 ng/mL) [10]	-0.09	-1.63	-2.07	7.04	49.4
[1]	-2.18	-4.25	-9.82	1.43	48.4
[11]	-9.49	-9.51	-7.79	0.54	-4.11
[12]	-8.12	-10.6	-11.2	9.28	-1.15
[13]	-9.44	-9.06	-12.7	-6.66	-1.81
[14]	-9.39	-6.67	-11.6	-9.93	-1.62

Details	drug sensitivity score
DERL-7 (IL-2 2.5 ng/mL) [16]	7.96
IMC-1 (IL-2 20 ng/mL) [17]	4.06
KAI3 (IL-2 2.5 ng/mL) [18]	4.06
KHYG-1 (IL-2 2.5 ng/mL) [19]	3.3
NK-92 (IL-2 2.5 ng/mL) [20]	2.22
NK-YS (IL-2 2.5 ng/mL) [21]	7.96
NKL (IL-2 2.5 ng/mL) [22]	4.29
SNK-6 (IL-2 2.5 ng/mL) [23]	9.92
YT (IL-2 2.5 ng/mL) [24]	3.79
[15]	2.71
[25]	0
[26]	0
[27]	0.89
[28]	0.89
